The text below walks through data of the OPERA property sets (Mansouri et al. 2018).

Bounds are passed on as bounds.

On to `Cc1ccc(C)cc1`, for which, under “25.0 °C”, the log10 OH rate constant (cm³/molecule/s) was -10.8.

Where the note is “25.0 °C”, `FC(F)(F)c1ccccc1` yielded a log10 OH rate constant (cm³/molecule/s) of -12.3.

With `Nc1ccc(Cc2ccc(N)cc2)cc1`, under “25.0 °C”, the log10 OH rate constant (cm³/molecule/s) is -10.5.

`c1ccoc1` gave a log10 OH rate constant (cm³/molecule/s) (25.0 °C) of -10.4.

For the setting “25.0 °C”, `CCCCCC` came in with a log10 OH rate constant (cm³/molecule/s) of -11.3.

Regarding `C=CC(=C)CCC=C(C)C`, the log10 OH rate constant (cm³/molecule/s) (25.0 °C) is -9.67.

For `C=C(C)CCC(=C)C`, the log10 OH rate constant (cm³/molecule/s) (25.0 °C) is -9.92.

`CS(C)=O` displayed a log10 OH rate constant (cm³/molecule/s) (25.0 °C) of -10.2.

Regarding `CCCCCCCCCCCCCC`, the log10 OH rate constant (cm³/molecule/s) (25.0 °C) was -10.7.

Compound `BrCCBr` showed a log10 OH rate constant (cm³/molecule/s) (25.0 °C) of -12.6.

`C1=Cc2cccc3cccc1c23` had a log10 OH rate constant (cm³/molecule/s) (25.0 °C) of -9.96.

`CC(=O)c1ccccc1` showed a log10 OH rate constant (cm³/molecule/s) (25.0 °C) of -11.6.

The compound `CCOC(C)=O` showed a log10 OH rate constant (cm³/molecule/s) (25.0 °C) of -11.8.

Where the note is “25.0 °C”, `CBr` registered a log10 OH rate constant (cm³/molecule/s) of -13.4.

In turn, `CC=Cc1ccccc1` yielded a log10 OH rate constant (cm³/molecule/s) (25.0 °C) of -10.2.

`CCC=C=O`: the log10 OH rate constant (cm³/molecule/s) (25.0 °C) was -9.93.

With `CC1=CC[C@@H](C(C)C)CC1`, under “25.0 °C”, the log10 OH rate constant (cm³/molecule/s) is -9.9.

With `CCCC(=O)CC`, the log10 OH rate constant (cm³/molecule/s) (25.0 °C) was -11.2.

In the case of `COCCO`, the log10 OH rate constant (cm³/molecule/s) (25.0 °C) was -10.9.

`CC(=O)OO[N+](=O)[O-]` displayed a log10 OH rate constant (cm³/molecule/s) (25.0 °C) of -13.

Turning to `CC(C)CS`, the log10 OH rate constant (cm³/molecule/s) (25.0 °C) is -10.3.

Under “25.0 °C”, `CCCCCCCCCCCCCCCC` showed a log10 OH rate constant (cm³/molecule/s) of -10.6.

Under “25.0 °C”, `CC(=O)O` displayed a log10 OH rate constant (cm³/molecule/s) of -12.1.

`Cc1ccccc1` registered a log10 OH rate constant (cm³/molecule/s) (25.0 °C) of -11.2.

For the setting “25.0 °C”, `OCC(F)(F)F` showed a log10 OH rate constant (cm³/molecule/s) of -13.

Compound `CCC` displayed a log10 OH rate constant (cm³/molecule/s) (25.0 °C) of -11.9.

As to `C1CCCCCC1`, the log10 OH rate constant (cm³/molecule/s) (25.0 °C) was -10.9.

`CC(C)CC(C)C` registered a log10 OH rate constant (cm³/molecule/s) (25.0 °C) of -11.3.

`Cc1cc(C)cc(C)c1` returned a log10 OH rate constant (cm³/molecule/s) (25.0 °C) of -10.2.

Compound `O=Cc1ccccc1` returned a log10 OH rate constant (cm³/molecule/s) (25.0 °C) of -10.9.

On to `CC(C)(C)c1ccccc1`, for which the log10 OH rate constant (cm³/molecule/s) (25.0 °C) was -11.3.

On to `c1ccc2c(c1)Cc1ccccc1-2`, for which, for the setting “25.0 °C”, the log10 OH rate constant (cm³/molecule/s) was -10.9.

In turn, `C=C(C)C` came in with a log10 OH rate constant (cm³/molecule/s) (25.0 °C) of -10.3.

Compound `CC(C)(C)C(C)(C)C` registered a log10 OH rate constant (cm³/molecule/s) (25.0 °C) of -12.

For `c1ccc2occc2c1`, the log10 OH rate constant (cm³/molecule/s) (25.0 °C) is -10.4.

In turn, `FC(F)(F)Cl` yielded a log10 OH rate constant (cm³/molecule/s) (25.0 °C) of less than -15.2.

Take `CCOCCCO`: for the setting “25.0 °C”, the log10 OH rate constant (cm³/molecule/s) was -10.7.

Under “27.0 °C”, `CCN` came in with a log10 OH rate constant (cm³/molecule/s) of -10.6.

Consider `CN(C)N=O`, for which, for the setting “25.0 °C”, the log10 OH rate constant (cm³/molecule/s) is -11.6.

As to `C=C(CCl)CCl`, the log10 OH rate constant (cm³/molecule/s) (25.0 °C) was -10.5.

Regarding `CC1CCCCC1`, under “25.0 °C”, the log10 OH rate constant (cm³/molecule/s) is -11.

For the setting “25.0 °C”, `CCCCCCCCC` returned a log10 OH rate constant (cm³/molecule/s) of -11.

In turn, `CC(C)CC(C)(C)C` returned a log10 OH rate constant (cm³/molecule/s) (25.0 °C) of -11.4.

In turn, `CCOCCOC(C)=O` registered a log10 OH rate constant (cm³/molecule/s) (25.0 °C) of -10.9.

On to `ClC(Cl)=C(Cl)Cl`, for which the log10 OH rate constant (cm³/molecule/s) (25.0 °C) was -12.8.

As for `CCC(=O)CC`, the log10 OH rate constant (cm³/molecule/s) (25.0 °C) is -11.7.

With `CCCCCCCCCCCCC`, the log10 OH rate constant (cm³/molecule/s) (25.0 °C) is -10.8.

Consider `CCCCCCCCCC`, for which the log10 OH rate constant (cm³/molecule/s) (25.0 °C) was -10.9.

Regarding `c1ccc2c(c1)CCO2`, the log10 OH rate constant (cm³/molecule/s) (25.0 °C) was -10.4.

Regarding `COc1ccccc1`, under “25.0 °C”, the log10 OH rate constant (cm³/molecule/s) was -10.8.

In turn, `CCC(O)CC` came in with a log10 OH rate constant (cm³/molecule/s) (25.0 °C) of -10.9.

Take `CCCCOCCO`: the log10 OH rate constant (cm³/molecule/s) (25.0 °C) is -10.7.

For `Cc1cccc(C)c1`, the log10 OH rate constant (cm³/molecule/s) (25.0 °C) is -10.6.

Under “25.0 °C”, `CCC=O` returned a log10 OH rate constant (cm³/molecule/s) of -10.7.

As for `CNN`, the log10 OH rate constant (cm³/molecule/s) (25.0 °C) is -10.2.

Take `ClC(Cl)(Cl)Cl`: for the setting “25.0 °C”, the log10 OH rate constant (cm³/molecule/s) was less than -15.9.

`CCCCOC(=O)CCC` showed a log10 OH rate constant (cm³/molecule/s) (25.0 °C) of -11.

As to `CCC(=O)OC`, the log10 OH rate constant (cm³/molecule/s) (25.0 °C) is -12.

As to `CC(C)(C)C=O`, the log10 OH rate constant (cm³/molecule/s) (25.0 °C) was -10.6.

Turning to `C1CC2CCC1CC2`, where the note is “25.0 °C”, the log10 OH rate constant (cm³/molecule/s) was -10.8.

In turn, `Sc1ccccc1` returned a log10 OH rate constant (cm³/molecule/s) (25.0 °C) of -11.

In the case of `COCC(C)=O`, for the setting “25.0 °C”, the log10 OH rate constant (cm³/molecule/s) was -11.2.

As to `C=C=CC`, the log10 OH rate constant (cm³/molecule/s) (25.0 °C) was -10.6.

`C=C1CCC2CC1C2(C)C` (configuration not stated) came in with a log10 OH rate constant (cm³/molecule/s) (25.0 °C) of -10.1.

For the compound `O=C1CCCCC1`, the log10 OH rate constant (cm³/molecule/s) (25.0 °C) is -11.2.

As to `CC(=O)C(C)=O`, the log10 OH rate constant (cm³/molecule/s) (25.0 °C) is -12.6.

Under “25.0 °C”, `CC(C)(C)S` registered a log10 OH rate constant (cm³/molecule/s) of -10.5.

For the compound `CCCCC(C)=O`, the log10 OH rate constant (cm³/molecule/s) (25.0 °C) is -11.

For the compound `CCC(C)(C)C`, the log10 OH rate constant (cm³/molecule/s) (25.0 °C) was -11.6.

Where the note is “25.0 °C”, `CC(F)F` yielded a log10 OH rate constant (cm³/molecule/s) of -13.5.

Compound `CC=C=O` gave a log10 OH rate constant (cm³/molecule/s) (25.0 °C) of -10.2.

Where the note is “25.0 °C”, `CCSCC` registered a log10 OH rate constant (cm³/molecule/s) of -10.8.

Regarding `CCCCCCCC(C)=O`, under “25.0 °C”, the log10 OH rate constant (cm³/molecule/s) was -10.9.

Where the note is “25.0 °C”, `FC(F)Cl` came in with a log10 OH rate constant (cm³/molecule/s) of -14.3.

For the compound `CC(=O)CCC(C)=O`, the log10 OH rate constant (cm³/molecule/s) (25.0 °C) is -11.1.

Where the note is “25.0 °C”, `Clc1ccc(-c2ccccc2)cc1` showed a log10 OH rate constant (cm³/molecule/s) of -11.4.

Where the note is “25.0 °C”, `C1=CCCCC1` gave a log10 OH rate constant (cm³/molecule/s) of -10.2.

For `C=CC=C(C)C`, the log10 OH rate constant (cm³/molecule/s) (25.0 °C) is -9.88.

For the compound `C=CC(C)=O`, the log10 OH rate constant (cm³/molecule/s) (25.0 °C) is -10.7.

Compound `Cc1cccc([N+](=O)[O-])c1` registered a log10 OH rate constant (cm³/molecule/s) (25.0 °C) of -12.

Regarding `O=[N+]([O-])c1ccc2ccccc2c1`, for the setting “25.0 °C”, the log10 OH rate constant (cm³/molecule/s) was -11.3.

On to `O=[N+]([O-])c1cccc2ccccc12`, for which the log10 OH rate constant (cm³/molecule/s) (25.0 °C) is -11.3.

The compound `CCCCC(C)CCC` (configuration not stated) returned a log10 OH rate constant (cm³/molecule/s) (25.0 °C) of -11.

Consider `O=[N+]([O-])c1ccccc1O`, for which the log10 OH rate constant (cm³/molecule/s) (25.0 °C) was -12.

Take `CC1=CC=C(C(C)C)CC1`: the log10 OH rate constant (cm³/molecule/s) (21.0 °C) was -9.44.

`CC(C)=CC=C(C)C` registered a log10 OH rate constant (cm³/molecule/s) (25.0 °C) of -9.68.

With `Cc1ccccc1[N+](=O)[O-]`, the log10 OH rate constant (cm³/molecule/s) (25.0 °C) was -12.2.

On to `CCO`, for which the log10 OH rate constant (cm³/molecule/s) (25.0 °C) is -11.5.

For `C=CC(=C)C`, where the note is “25.0 °C”, the log10 OH rate constant (cm³/molecule/s) was -10.

For the setting “25.0 °C”, `C=C=O` gave a log10 OH rate constant (cm³/molecule/s) of -10.8.

The compound `ClCC1CO1` (configuration not stated) displayed a log10 OH rate constant (cm³/molecule/s) (25.0 °C) of -12.4.

As to `C=CC=O`, the log10 OH rate constant (cm³/molecule/s) (25.0 °C) was -10.7.

Compound `CCc1cccc(C)c1` showed a log10 OH rate constant (cm³/molecule/s) (25.0 °C) of -10.7.

`C/C=N/O`: for the setting “25.0 °C”, the log10 OH rate constant (cm³/molecule/s) was -11.7.

With `O=CCO`, where the note is “25.0 °C”, the log10 OH rate constant (cm³/molecule/s) is -11.

`C=C(C)C(=C)C` gave a log10 OH rate constant (cm³/molecule/s) (25.0 °C) of -9.91.

`O=CO`: for the setting “25.0 °C”, the log10 OH rate constant (cm³/molecule/s) is -12.3.

`CCCS` returned a log10 OH rate constant (cm³/molecule/s) (25.0 °C) of -10.3.

Consider `CC1CCCC(C)(C)C1` (configuration not stated), for which, under “25.0 °C”, the log10 OH rate constant (cm³/molecule/s) is -11.1.

Regarding `COO`, the log10 OH rate constant (cm³/molecule/s) (25.0 °C) is -11.3.

Under “25.0 °C”, `FC(Cl)Cl` yielded a log10 OH rate constant (cm³/molecule/s) of -13.5.

For the compound `COP(=S)(OC)SC`, the log10 OH rate constant (cm³/molecule/s) (25.0 °C) is -10.3.

The compound `CCS` showed a log10 OH rate constant (cm³/molecule/s) (25.0 °C) of -10.3.

For `CC(C)C1CC1`, where the note is “25.0 °C”, the log10 OH rate constant (cm³/molecule/s) was -11.5.

The compound `FC(F)(Cl)Br` showed a log10 OH rate constant (cm³/molecule/s) (25.0 °C) of less than -15.

The compound `C=C(C)C=CC` returned a log10 OH rate constant (cm³/molecule/s) (25.0 °C) of -9.87.

Turning to `CCCCCCC`, the log10 OH rate constant (cm³/molecule/s) (25.0 °C) is -11.1.
